Results on 2 molecules are retold here after ChEMBL document CHEMBL4043232, “A mimetic of the mSin3-binding helix of NRSF/REST ameliorates abnormal pain behavior in chronic pain models” (2017).

The target of assay [1] is T1, Paired amphipathic helix protein Sin3b (Mus musculus) (UniProt Q62141).
T1 sequence (whole entry): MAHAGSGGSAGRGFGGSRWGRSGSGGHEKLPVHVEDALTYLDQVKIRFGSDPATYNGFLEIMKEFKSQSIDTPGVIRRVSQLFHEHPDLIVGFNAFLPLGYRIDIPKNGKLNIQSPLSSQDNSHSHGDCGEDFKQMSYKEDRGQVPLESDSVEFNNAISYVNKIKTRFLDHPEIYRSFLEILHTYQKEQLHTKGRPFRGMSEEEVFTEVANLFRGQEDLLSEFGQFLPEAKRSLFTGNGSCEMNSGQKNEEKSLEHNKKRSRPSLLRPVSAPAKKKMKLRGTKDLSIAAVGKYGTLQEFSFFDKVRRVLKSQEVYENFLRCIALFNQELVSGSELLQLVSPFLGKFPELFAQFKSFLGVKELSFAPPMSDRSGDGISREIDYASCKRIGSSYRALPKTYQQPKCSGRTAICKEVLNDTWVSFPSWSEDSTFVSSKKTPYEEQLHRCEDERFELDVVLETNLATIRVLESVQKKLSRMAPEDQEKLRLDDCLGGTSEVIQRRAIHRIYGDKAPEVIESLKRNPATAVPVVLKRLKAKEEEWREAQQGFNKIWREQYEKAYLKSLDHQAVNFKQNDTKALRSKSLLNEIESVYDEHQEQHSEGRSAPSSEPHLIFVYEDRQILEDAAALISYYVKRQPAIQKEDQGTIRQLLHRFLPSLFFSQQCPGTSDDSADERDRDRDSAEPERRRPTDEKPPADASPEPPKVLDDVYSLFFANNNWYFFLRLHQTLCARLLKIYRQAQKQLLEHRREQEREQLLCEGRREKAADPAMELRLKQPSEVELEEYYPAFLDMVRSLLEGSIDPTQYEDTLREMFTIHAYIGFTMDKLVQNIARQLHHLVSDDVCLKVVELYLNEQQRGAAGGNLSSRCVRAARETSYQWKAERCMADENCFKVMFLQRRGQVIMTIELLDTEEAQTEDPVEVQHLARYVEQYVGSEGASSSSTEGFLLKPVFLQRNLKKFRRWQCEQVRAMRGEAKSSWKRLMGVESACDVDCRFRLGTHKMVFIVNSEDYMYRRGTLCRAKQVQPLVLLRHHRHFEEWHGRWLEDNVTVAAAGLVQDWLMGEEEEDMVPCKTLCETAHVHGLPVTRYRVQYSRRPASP
Briefly: Inhibition of N-terminal GST-tagged mouse Sin3B PAH1 domain (28 to 107 residues) expressed in Escherichia coli BL21 (DE3) binding to NRSF/REST at 100 uM by 1H STD-NMR spectrometric analysis.

Assay [2] deals with T1, Paired amphipathic helix protein Sin3b (Mus musculus). The assay can be described thus: Binding affinity to N-terminal GST-tagged mouse Sin3B PAH1 domain (28 to 107 residues) expressed in Escherichia coli BL21 (DE3) assessed as chemical shift perturbations at 100 uM by 1H-15N HSQC titration analysis.
Assay [3] deals with Mus musculus. Briefly: Antinociceptive activity in partial sciatic nerve ligation C57BL/6J mouse model of neuropathic pain assessed as reduction in C-fiber stimulated hyposensitivity at 10 mg/kg, ip administered daily from day 5 to day 11 measured on day 12. The assay is classed as functional, organism-based.
The subject of assay [4] is Mus musculus. Briefly: Antinociceptive activity in partial sciatic nerve ligation C57BL/6J mouse model of neuropathic pain assessed as reduction in peripheral morphine analgesia at 10 mg/kg, ip administered daily from day 5 to day 11 measured on day 12. The assay is classed as functional, organism-based.
Assay [5] concerns Mus musculus. Briefly: Antinociceptive activity in intermittent cold stress treated partial sciatic nerve ligation C57BL/6J mouse model of fibromyalgia assessed as reversal of thermal hyperalgesia at 10 mg/kg, ip administered daily from day 5 to day 11 measured on day 12. The assay is classed as functional, organism-based.
Assay [6] concerns Mus musculus. The assay can be described thus: Antinociceptive activity in intermittent cold stress treated partial sciatic nerve ligation C57BL/6J mouse model of fibromyalgia assessed as reduction in central morphine analgesia at 10 mg/kg, ip administered daily from day 5 to day 11 measured on day 12. The assay is classed as functional, organism-based.
Assay [7] concerns Mus musculus. The assay can be described thus: Antinociceptive activity in intermittent psychological stress treated partial sciatic nerve ligation C57BL/6J mouse model of fibromyalgia assessed as reversal of thermal hyperalgesia at 10 mg/kg, ip administered daily from day 5 to day 11 measured on day 12. The assay is classed as functional, organism-based.
Assay [8] has as its system Mus musculus. The assay can be described thus: Antinociceptive activity in intermittent psychological stress treated partial sciatic nerve ligation C57BL/6J mouse model of fibromyalgia assessed as reduction in central morphine analgesia at 10 mg/kg, ip administered daily from day 5 to day 11 measured on day 12. The assay is classed as functional, organism-based.
In assay [9] the test system is Mus musculus. Briefly: Antinociceptive activity in partial sciatic nerve ligation C57BL/6J mouse model of neuropathic pain assessed as C-fiber stimulated paw withdrawal threshold at 10 mg/kg, ip measured on day 5 (reference value: 3 microA). The assay is classed as functional.
For assay [10], the system named is Mus musculus. The assay can be described thus: Antinociceptive activity in partial sciatic nerve ligation C57BL/6J mouse model of neuropathic pain assessed as C-fiber stimulated paw withdrawal threshold at 10 mg/kg, ip measured on day 12 (reference value: 6 microA). The assay is classed as functional.
For assay [11], the system named is Mus musculus. The assay can be described thus: Antinociceptive activity in intermittent cold stress treated partial sciatic nerve ligation C57BL/6J mouse model of fibromyalgia assessed as paw withdrawal latency time at 10 mg/kg, ip measured on day 5 (reference value: 10 sec). The assay is classed as functional.
Assay [12] has as its system Mus musculus. The assay can be described thus: Antinociceptive activity in intermittent cold stress treated partial sciatic nerve ligation C57BL/6J mouse model of fibromyalgia assessed as paw withdrawal latency time at 10 mg/kg, ip measured on day 12 (reference value: 13 sec). The assay is classed as functional.
Assay [13] deals with Mus musculus. Briefly: Antinociceptive activity in intermittent psychological stress treated partial sciatic nerve ligation C57BL/6J mouse model of fibromyalgia assessed as paw withdrawal latency time at 10 mg/kg, ip measured on day 5 (reference value: 3 sec). The assay is classed as functional.
For assay [14], the system named is Mus musculus. The assay can be described thus: Antinociceptive activity in intermittent psychological stress treated partial sciatic nerve ligation C57BL/6J mouse model of fibromyalgia assessed as paw withdrawal latency time at 10 mg/kg, ip measured on day 12 (reference value: 3 sec). The assay is classed as functional.
The test system of assay [15] is Mus musculus. The assay can be described thus: Antinociceptive activity in intermittent psychological stress treated partial sciatic nerve ligation C57BL/6J mouse model of fibromyalgia assessed as paw withdrawal latency time at 10 mg/kg, ip measured on day 19 (reference value: 3 sec). The assay is classed as functional.
Assay [16] deals with Mus musculus. The assay can be described thus: Antinociceptive activity in intermittent psychological stress treated partial sciatic nerve ligation C57BL/6J mouse model of fibromyalgia assessed as paw withdrawal latency time at 10 mg/kg, ip measured on day 5 (reference value: 4 sec). The assay is classed as functional.
In assay [17] the test system is Mus musculus. Briefly: Antinociceptive activity in intermittent psychological stress treated partial sciatic nerve ligation C57BL/6J mouse model of fibromyalgia assessed as paw withdrawal latency time at 10 mg/kg, ip measured on day 12 (reference value: 4 sec). The assay is classed as functional.
Assay [18] relates to Mus musculus. Briefly: Antinociceptive activity in intermittent psychological stress treated partial sciatic nerve ligation C57BL/6J mouse model of fibromyalgia assessed as paw withdrawal latency time at 10 mg/kg, ip measured on day 19 (reference value: 4 sec). The assay is classed as functional.

Molecules are shown by their SMILES. Calls of active or inactive are those of the source.

As to `CCCC[C@H]1C(=O)N(CCC(C)C)C[C@@H]2N(C(=O)OC(C)C)CC3(CCCCC3)C(=O)N21`, the inhibition entry in assay [1] was “Active”.
Take `CC[C@H]1ON(C(=O)OC(C)C)[C@H]2CN(CCC(C)C)C(=O)[C@H](CCSC)N2C1=O`: the inhibition result in assay [1] was “Active”. For the same molecule, the outcome (in assay [2]; in the assay on Mus musculus [3]; in the assay with Mus musculus [4]; in the assay on Mus musculus [5]; in the assay with Mus musculus [6]; in the assay with Mus musculus [7]) was Active. For the same molecule, the outcome in the assay with Mus musculus [8] was Active. Also, the Activity came to 3 microA with Mus musculus [9] and 6 microA with Mus musculus [10]. Also, the Time in the assay with Mus musculus [11] was determined as 10 s; with Mus musculus [12] it was 13 s; in the assay on Mus musculus [13] it was 3 s; in the assay on Mus musculus [14] it was 3 s; with Mus musculus [15] it was 3 s; in the assay with Mus musculus [16], 4 s. Also, the Time in the assay with Mus musculus [17] and in the assay with Mus musculus [18] was 4 s each time.
